Broadly, the IC50 is the concentration needed to halve the response being measured.

Counter-ions that a name gives are not always drawn.

For the experiment, the target named is T1, hTRPA1 (Homo sapiens, UniProt O75762).
T1 construct: host or cells: CHO-K1 Tet-On, Clone 20 (Chinese Hamster Ovary cells, inducible expression)
T1 sequence (O75762 whole entry): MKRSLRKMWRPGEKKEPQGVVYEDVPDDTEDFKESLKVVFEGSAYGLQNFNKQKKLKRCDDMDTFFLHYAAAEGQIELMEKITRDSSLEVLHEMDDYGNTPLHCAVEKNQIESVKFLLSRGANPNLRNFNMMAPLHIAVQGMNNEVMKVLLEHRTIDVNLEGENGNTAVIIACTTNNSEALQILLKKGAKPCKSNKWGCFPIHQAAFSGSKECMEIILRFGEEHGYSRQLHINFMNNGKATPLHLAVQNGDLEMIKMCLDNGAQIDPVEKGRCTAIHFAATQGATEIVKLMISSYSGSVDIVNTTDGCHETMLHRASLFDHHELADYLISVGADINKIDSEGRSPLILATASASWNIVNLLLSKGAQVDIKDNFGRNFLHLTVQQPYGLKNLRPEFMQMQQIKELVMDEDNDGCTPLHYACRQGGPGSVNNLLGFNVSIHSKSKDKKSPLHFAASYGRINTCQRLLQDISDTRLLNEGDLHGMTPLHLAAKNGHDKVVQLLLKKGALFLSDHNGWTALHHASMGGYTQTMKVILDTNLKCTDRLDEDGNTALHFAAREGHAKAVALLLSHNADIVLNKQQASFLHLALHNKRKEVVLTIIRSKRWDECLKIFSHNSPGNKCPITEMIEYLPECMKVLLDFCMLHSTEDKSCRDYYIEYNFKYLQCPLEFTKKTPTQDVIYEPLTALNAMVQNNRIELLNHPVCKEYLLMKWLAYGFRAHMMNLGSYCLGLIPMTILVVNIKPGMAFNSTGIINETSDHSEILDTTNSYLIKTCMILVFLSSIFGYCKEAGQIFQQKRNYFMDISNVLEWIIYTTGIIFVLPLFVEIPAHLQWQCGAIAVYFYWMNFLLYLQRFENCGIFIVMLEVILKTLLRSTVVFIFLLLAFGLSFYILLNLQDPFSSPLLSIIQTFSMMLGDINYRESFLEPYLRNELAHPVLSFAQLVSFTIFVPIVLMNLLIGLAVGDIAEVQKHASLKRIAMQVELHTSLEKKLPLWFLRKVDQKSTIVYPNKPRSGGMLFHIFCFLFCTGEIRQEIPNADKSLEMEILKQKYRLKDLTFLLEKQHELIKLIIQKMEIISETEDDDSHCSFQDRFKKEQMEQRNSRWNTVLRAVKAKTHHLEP
Nature of the experiment: IC50 determination, dose response calcium flux (FLIPR) assay, ChanTest hTRPA1-CHO stably transfected cell line. Particulars: CHO-K1 Tet-On hTRPA1 cells, 30' preincubation, agonist cinnamaldehyde final 100 uM. Format: cell-based. The procedure:
IC50 Determination of Exemplified Compounds Dose Response Assay: ChanTest hTRPA1-CHO Stably Transfected Cell Line
CHO-K1 Tet-On_HOMSA_TRPA1_Clone—20
Growth Media for CHO-K1 Tet-On_HOMSA_TRPA1_Clone—20 • Ham's F-12 with 10% tetracycline-free FBS • 1× penicillin-streptomycin • 1× glutamax • 0.01 mg/ml Blasticidin • 0.40 mg/ml Zeocin • The cell line doubling rate was ˜15 hours. […] Experiments were run at 24 hours post induction.
Plating Conditions CHOK1/TRPA1 Cells: • Harvested cells with 0.025% trypsin/EDTA. • Resuspended cells in growth media without selection antibiotics. • Measured cell density and diluted to 2.4×10^5 cells/ml in media containing 1 ug/ml Doxycycline Plate 25 ul/well into 384 well black/clear tissue culture-treated plates. • Incubated overnight at 37° C.
Reagents: • Replacement Buffer: Hank's Balanced Salt Solution, 20 mM HEPES along with 0.005% BSA and 2× Probenecid • Dye Loading Buffer: Cal-3 NW Calcium dye was prepared by dissolving the contents of one vial with […] Hank's Balanced Salt Solution containing 20 mM HEPES. • Control compounds for CHOK1/TRPA1 cells: AP-18, stock 10 mM, prepare 3.5× compound dilution in a Compound Buffer (HBSS/20 mM HEPES/0.005% BSA)—final concentration 10 uM.
Preparation of Cinnamaldehyde (Agonist Addition):
• Specific gravity=1.046 gm/cc • 1.32 gm/1.046 gm/cc=1.26 ml of stock • Add 1.74 ml DMSO=3.3 M stock • Working solution 4.5× (final 100 uM in Compound Buffer: HBSS/20 mM HEPES/0.005% BSA)
Compounds dilutions were prepared from 5 or 10 mM stock (100% DMSO): • Adjustments of volumes and concentrations were made at time of titration to reflect desired final assay concentrations. • Compounds were tested at either 20 μM three folds dilution 11 steps out or 30 μM two folds dilution 11 steps out. • 3 μl of diluted compound were transferred into Weidmann 384-well plate in duplicates side-by-side.
Compound plates were resuspended with 100 ul of HBSS/20 mM HEPES/0.005% BSA buffer (Compound Buffer):
Growth media was removed from the cell plates (20 ul) and 20 ul of the Replacement Buffer was added followed by addition of 25 ul of diluted dye. All three steps were performed using a Plate Washer BioTek 407. The plates were then incubated for 30′ at RT.
After incubation, both the cell and compound plates were brought to the FLIPR and 20 ul of the diluted compounds/antagonist/bk were transferred to the cell plates by the FLIPR. Plates were then incubated for 30′ at room temperature. After 30′ incubation, plates were returned to the FLIPR and 20 ul of 4.5× Cinnamaldehyde was added to the cell plates. During the compound addition as well as agonist addition, fluorescence readings were taken simultaneously from all 384 wells of the cell plate every 1.5 seconds. Five readings were taken to establish a stable baseline, then 20 ul of sample was rapidly (30 ul/sec) and simultaneously added to each well of the cell plate. The fluorescence was continuously monitored before, during and after sample/agonist addition for a total elapsed time of 100 seconds (compound addition) and 120 seconds (agonist addition). Responses (increase in peak fluorescence) in each well following agonist addition was determined. The initial fluorescence reading from each well, prior to ligand stimulation, was used a zero baseline value for the data from that well.
Turning to `COc1cccc(C2CCCN(CC(OC(=O)Nc3ccc(Cl)cc3)C(F)(F)F)C2)c1` (stereo not drawn) [Example 2, (4-Chlorophenyl)-carbamic acid 2,2,2-trifluoro-1-[3-(3-methoxyphenyl)-piperidin-1-ylmethyl]-ethyl ester hydrochloride], the half-inhibitory concentration (IC50) is 0.345 µM. In the case of `O=C(Nc1ccc(Cl)cc1)OC(CN1CCCC(Cc2ccccc2)C1)C(F)(F)F` (stereo not drawn) [Example 9, (4-Chlorophenyl)-carbamic acid 1-(3-benzylpiperidin-1-ylmethyl)-2,2,2-trifluoroethyl ester hydrochloride salt (1:1)], the IC50 amounted to 0.339 µM.

On to `O=C(C[C@@H](CN1CCC[C@@H](c2cccc(C(F)(F)F)c2)C1)C(F)(F)F)Nc1ccc(Cl)cc1` (racemic) [Example 26, Racemic (S)—N-(4-Chloro-phenyl)-4,4,4-trifluoro-3-[(S)-3-(3-trifluoromethyl-phenyl)-piperidin-1-ylmethyl]-butyramide], for which the half-maximal inhibitory concentration (IC50) is 1.4 µM.

As for `O=C(Nc1ccc(Cl)cc1)O[C@@H](CN1CCCC(Oc2ccccc2)C1)C(F)(F)F` (stereo partly drawn) [Example 40, (4-Chlorophenyl)-carbamic acid (S)-2,2,2-trifluoro-1-(3-phenoxypiperidin-1-ylmethyl)-ethyl ester hydrochloride], the IC50 came to 0.191 µM. As to `COc1ccc(CC2CCCN(C[C@H](OC(=O)Nc3ccc(Cl)cc3)C(F)(F)F)C2)cc1` (stereo partly drawn) [Example 20, (4-Chlorophenyl)-carbamic acid 2,2,2-trifluoro-1-[3-(4-methoxybenzyl)-piperidin-1-ylmethyl]-ethyl ester], the concentration for half-maximal inhibition (IC50) was determined as 0.165 µM.

In the case of `O=C(Nc1ccc(Cl)cc1)O[C@H](CN1CCC[C@@H](c2ccccc2)C1)C(F)(F)F` [Example 8, (4-Chlorophenyl)-carbamic acid (R)-2,2,2-trifluoro-1-((S)-3-phenylpiperidin-1-ylmethyl)-ethyl ester hydrochloride], the half-maximal inhibitory concentration (IC50) was 6.2 µM.

Turning to `COc1cccc([C@H]2CCCN(C[C@H](OC(=O)Nc3ccc(Cl)cc3)C(F)(F)F)C2)c1` [Example 3, (4-Chlorophenyl)-carbamic acid (S)-2,2,2-trifluoro-1-[(R)-3-(3-methoxyphenyl)-piperidin-1-ylmethyl]-ethyl ester hydrochloride], the IC50 stood at 0.121 µM. In the case of `O=C(Nc1ccc(Cl)cc1)O[C@@H](CN1CCC(Cc2ccccc2)C1)C(F)(F)F` (stereo partly drawn) [Example 64, (4-Chlorophenyl)-carbamic acid (S)-1-(3-benzylpyrrolidin-1-ylmethyl)-2,2,2-trifluoro-ethyl ester], the IC50 was determined as 4.99 µM. For the compound `O=C(Nc1ccc(Cl)cc1)O[C@@H](CN1CCC[C@@H](c2ccccc2)C1)C(F)(F)F` [Example 6, (4-Chlorophenyl)-carbamic acid (S)-2,2,2-trifluoro-1-((S)-3-phenylpiperidin-1-ylmethyl)-ethyl ester hydrochloride], the half-inhibitory concentration (IC50) is 1.5 µM. Under `O=C(Nc1ccc(Cl)cc1)O[C@@H](CN1CCC[C@H](Oc2ccncc2)C1)C(F)(F)F` (racemic) [Example 22a, (4-chloro-phenyl)-carbamic acid 2,2,2-trifluoro-1-[(R)-3-(pyridin-4-yloxy)-piperidin-1-ylmethyl]-ethyl ester] stands 4.15 µM; under `CS(=O)(=O)c1cccc(C2CCCN(C[C@H](OC(=O)Nc3ccc(F)cc3)C(F)(F)F)C2)c1` (stereo partly drawn) [Example 63, (4-Fluorophenyl)-carbamic acid (S)-2,2,2-trifluoro-1-[3-(3-methanesulfonylphenyl)-piperidin-1-ylmethyl]-ethyl ester hydrochloride], 2.91 µM; under `O=C(Nc1ccc(Cl)cc1)O[C@@H](CN1CCCC(c2cccc(C(F)(F)F)n2)C1)C(F)(F)F` (stereo partly drawn) [Example 56, (4-Chlorophenyl)-carbamic acid (S)-2,2,2-trifluoro-1-(6-trifluoromethyl-3′,4′,5′,6′-tetrahydro-2′H-[2,3′]bipyridinyl-1′-ylmethyl)-ethyl ester hydrochloride], 0.246 µM. For `O=C(Nc1ccc(Cl)cc1)O[C@@H](CN1CCCC(C(=O)c2ccccc2)C1)C(F)(F)F` (stereo partly drawn) [Example 39, (4-Chlorophenyl)-carbamic acid (S)-1-(3-benzoylpiperidin-1-ylmethyl)-2,2,2-trifluoroethyl ester hydrochloride] the value was 0.865 µM. For `O=C(Nc1ccc(Cl)cc1)O[C@@H](CN1CCC[C@H](c2cccc(C(F)(F)F)c2)C1)C(F)(F)F` (single isomer, unassigned) [Example 30, hydrochloride] the value was 0.0104 µM. Turning to `O=C(Nc1ccc(Cl)cc1)O[C@@H](CN1CCC[C@@H](Oc2ccc(Cl)cc2)C1)C(F)(F)F` [Example 52b, (4-Chlorophenyl)-carbamic acid (S)-1-[(R)-3-(4-chlorophenoxy)-piperidin-1-ylmethyl]-2,2,2-trifluoroethyl ester hydrochloride], the IC50 was found to be 0.961 µM. In the case of `O=C(Nc1ccc(Cl)cc1)OC(CN1CCCC(OCc2ccccc2)C1)C(F)(F)F` (stereo not drawn) [Example 14, (4-Chlorophenyl)-carbamic acid 1-(3-benzyloxypiperidin-1-ylmethyl)-2,2,2-trifluoroethyl ester], the IC50 worked out at 0.137 µM. As for `O=C(Nc1ccc(F)c(Cl)c1)O[C@@H](CN1CCCC(c2cccc(C(F)(F)F)c2)C1)C(F)(F)F` (stereo partly drawn) [Example 65, (3-Chloro-4-fluoro-phenyl)-carbamic acid (S)-2,2,2-trifluoro-1-[3-(3-trifluoromethyl-phenyl)-piperidin-1-ylmethyl]-ethyl ester], the IC50 was 0.257 µM. Consider `O=C(Nc1ccc(Cl)c(Cl)c1)O[C@@H](CN1CCCC(c2cccc(C(F)(F)F)c2)C1)C(F)(F)F` (stereo partly drawn) [Example 66, (3,4-Dichlorophenyl)-carbamic acid(S)-2,2,2-trifluoro-1-[3-(3-trifluoromethyl-phenyl)piperidin-1-ylmethyl]-ethyl ester], for which the IC50 was 0.2 µM. Consider `O=C(Nc1ccc(F)c(F)c1)O[C@@H](CN1CCCC(c2cccc(C(F)(F)F)c2)C1)C(F)(F)F` (stereo partly drawn) [Example 67, (3,4-Difluorophenyl)-carbamic acid (S)-2,2,2-trifluoro-1-[3-(3-trifluoromethylphenyl)piperidin-1-ylmethyl]-ethyl ester], for which the IC50 is 0.177 µM. Turning to `O=C(Nc1ccc(Cl)cn1)O[C@@H](CN1CCCC(c2cccc(C(F)(F)F)c2)C1)C(F)(F)F` (stereo partly drawn) [Example 59, (5-Chloropyridin-2-yl)-carbamic acid (S)-2,2,2-trifluoro-1-[3-(3-trifluoromethylphenyl)-piperidin-1-ylmethyl]-ethyl ester hydrochloride], the half-maximal inhibitory concentration (IC50) is 0.27 µM. In the case of `O=C(Nc1ccc(Cl)cc1)OC(CN1CCCC(c2ccc(Cl)cc2)C1)C(F)(F)F` (stereo not drawn) [Example 37, (4-Chlorophenyl)-carbamic acid 1-[3-(4-chlorophenyl)-piperidin-1-ylmethyl]-2,2,2-trifluoro ethyl ester], the IC50 was 0.522 µM.

`O=C(Nc1ccc(Cl)cc1)O[C@@H](CN1CCC[C@H](Cc2ccccc2)C1)C(F)(F)F` (single isomer, unassigned) [Example 11]: the IC50 is 0.0872 µM. Consider `O=C(Nc1ccc(Cl)cc1)O[C@@H](CN1CCCC(c2ccccn2)C1)C(F)(F)F` (stereo partly drawn) [Example 53, (4-Chlorophenyl)-carbamic acid (S)-2,2,2-trifluoro-1-(3′,4′,5′,6′-tetrahydro-2′H-[2,3′]bipyridinyl-1′-ylmethyl)-ethyl ester hydrochloride], for which the IC50 was found to be 1.92 µM. For `O=C(Nc1ccc(Cl)cc1)O[C@@H](CN1CCC[C@H](c2cc(C(F)(F)F)cc(C(F)(F)F)c2)C1)C(F)(F)F` [Example 23, (4-Chlorophenyl)-carbamic acid (S)-1-[(R)-3-(3,5-bis-trifluoromethylphenyl)-piperidin-1ylmethyl]-2,2,2-trifluoroethyl ester] the value was 0.0215 µM.

The values are drawn from patent US20150218141A1, “SUBSTITUTED CARBAMATE COMPOUNDS” (HOFFMANN-LA ROCHE INC, priority 2012, published 2015).
